Laboratory results: patent US20230172959A1, “USE OF NMN FOR THE PREVENTION AND/OR TREATMENT OF A BACK PAIN AND CORRESPONDING COMPOSITIONS” (NUVAMID SA, priority 2020, published 2023)

How the values were obtained:
chronic lumbalgia [1] = assay: Lequesne algo-functional index, 10-day satisfaction study in 12 volunteers; type: in vivo, human
Procedure: As for the Lequesne score, it varies from 0 to 22: the higher the score, the more extreme or even intolerable the impairment. From 8 to 10, the impairment is qualified as significant and for an index score greater than or equal to 10, the impairment is qualified as very significant. A satisfaction study was carried out on a group of 12 volunteers, aged 42±8 years, consisting of seven female and five male subjects. The main objective of this study was to evaluate the level of satisfaction of subjects with regard to the evolution of their lumbalgia (low back pain) during the morning and/or evening application of a composition according to the invention containing 5% by weight of NMN. A composition in the form of an oil-in-water emulsion comprising 5% NMN was formulated as follows, the ingredients being designated by their INCI (International Nomenclature of Cosmetic Ingredients) name: Aqua, Paraffinum liquidum, Cetyl alcohol, Glyceryl stearate, Benzyl PCA, Ceteareth-20, Ceteareth-12, Cetyl Palmitate, Cocoglycerides, Cetearyl alcohol, Sodium Hydroxide, NMN. The composition was prepared according to any method well known to the person skilled in the art. The study took place over 10 days. At baseline, ie upon inclusion (DO), the selected subjects provide their demographic characteristics (age, weight, height), indicate the period of persistence and intensity of the pain on a Visual Analogue Scale, and complete the WOMAC and Lequesne questionnaires. […] On day 10, the volunteers complete the WOMAC questionnaire, the Lequesne questionnaire, the Visual Analogue Scale (VAS) of pain, indicating the perceived improvement in lumbalgia pain relief as measured by the PGI-I index (abbreviation for “Patient Global Improvement Impression”), satisfaction with regard to evolution of the lumbalgia on a Likert scale as well as the ease of application and penetration of the composition, assessment of the texture and odour of the composition, likelihood of re-use thereof in the event of recurrence of a similar pain, and recommendation of use to third parties presenting with pain of similar nature. […]

chronic lumbalgia [2] = assay: Perceived improvement (PGI-I index) and satisfaction with evolution of lumbalgia (Likert scale); type: in vivo, human; settings: end of the study
Procedure: A satisfaction study was carried out on a group of 12 volunteers, aged 42±8 years, consisting of seven female and five male subjects. The main objective of this study was to evaluate the level of satisfaction of subjects with regard to the evolution of their lumbalgia (low back pain) during the morning and/or evening application of a composition according to the invention containing 5% by weight of NMN. A composition in the form of an oil-in-water emulsion comprising 5% NMN was formulated as follows, the ingredients being designated by their INCI (International Nomenclature of Cosmetic Ingredients) name: Aqua, Paraffinum liquidum, Cetyl alcohol, Glyceryl stearate, Benzyl PCA, Ceteareth-20, Ceteareth-12, Cetyl Palmitate, Cocoglycerides, Cetearyl alcohol, Sodium Hydroxide, NMN. The composition was prepared according to any method well known to the person skilled in the art. On day 10, the volunteers complete the WOMAC questionnaire, the Lequesne questionnaire, the Visual Analogue Scale (VAS) of pain, indicating the perceived improvement in lumbalgia pain relief as measured by the PGI-I index (abbreviation for “Patient Global Improvement Impression”), satisfaction with regard to evolution of the lumbalgia on a Likert scale as well as the ease of application and penetration of the composition, assessment of the texture and odour of the composition, likelihood of re-use thereof in the event of recurrence of a similar pain, and recommendation of use to third parties presenting with pain of similar nature. The PGI-I index is an index that serves as means for evaluating the response to a treatment. The Likert scale is a psychometric tool used for measuring an attitude in individuals, which consists of one or more statements for which the individual responding expresses their degree of agreement or disagreement.

NC(=O)c1ccc[n+]([C@@H]2O[C@H](COP(=O)([O-])O)[C@@H](O)[C@H]2O)c1 (stereo in doubt) [NMN, nicotinamide mononucleotide]
reduction in the Lequesne score (chronic lumbalgia [1]; baseline to study endpoint): 38.8%
subjects with no impairment or only a modest or slight impairment (Lequesne) (chronic lumbalgia [1]; end of the study): 83.4%
Lequesne algo-functional score (chronic lumbalgia [1]; study endpoint (day 10), baseline 8.3±2.5, p<0.001, 5% NMN emulsion topical): 5.3±3.8
subjects with improvement characterised as 'considerable' (chronic lumbalgia [2]; 3 subjects): 25.0%
subjects with improvement characterised as 'a lot' (chronic lumbalgia [2]; 4 subjects): 33.3%
subjects with improvement characterised as 'slight' (chronic lumbalgia [2]; 4 subjects): 33.3%
subjects who experienced improvement (chronic lumbalgia [2]; 12 subjects): 91.7%
participants satisfied with the evolution of their chronic lumbalgia (chronic lumbalgia [2]; Likert scale): 91.7%
participants very satisfied with the evolution of their chronic lumbalgia (chronic lumbalgia [2]; Likert scale): 33.3%
